The values below come from paper PMC9650711, “Hydroxyl-Rich Hydrophilic Endocytosis-Promoting Peptide with No Positive Charge” (Journal of the American Chemical Society, 2022).

Numbered stars: 1 amine (or outer) side, 2 acyl side, 3 side chain; on linkers, the order of the positions; unused ones are H or OH. Bridge positions count the residues as written; N and C are the ends. Square brackets hold non-standard residues; d marks the D form. Triazole bridges read from a SMILES are 1,4-linked. Peptide text beside a SMILES is read from it. * marks the point of attachment. RhodamineB = CCN(CC)c1ccc2c(-c3ccccc3C(=O)*)c3ccc(=[N+](CC)CC)cc-3oc2c1; Lys(N3) = [N-]=[N+]=NCCCC[C@H](N)C(=O)O; NMeGABA = CN(CCCC(=O)[*:2])[*:1]; Pra = C#CC[C@H](N)C(=O)O

Data set [1] concerns U87 cells. Nature of the data set: Cell viability by YOYO staining, flow cytometry. It counts as cell-based, human. The note with it: RB-EPP6 20 nM to 100 μM. The method, then: Confocal imaging experiments
To image the cells, a Zeiss 880 inverted confocal laser scanning microscope (Carl Zeiss, Germany) was used. Image acquisition and analyses were carried out using the manufacturer’s software (ZEN, Carl Zeiss). Quantification of fluorescence intensity in single cells was performed using Fiji […]
Flow cytometry experiments
To perform flow cytometry experiments, a NovoCyte flow cytometer (NovoExpress) was used.
Quantification of fluorescence intensity was achieved using the Novoxpress software. Fifty thousand cells were analyzed for each condition. A green fluorescent dye used for DNA staining, YOYO, was included in all the flow cytometry experiments, serving as a cell live/dead indicator.
[…]
2 μL of RB-EPP (in DMSO) was added to the solution at a concentration of 500 μM. […] Samples were collected from both phases and quantified by Analytical HPLC separately. […]

The target of data set [2] is T1, full-length FIBCD1 (Homo sapiens, UniProt Q8N539).
T1 construct: We overexpressed full-length FIBCD1 in CHO cells, extracted and purified the protein; host or cells: ExpiCHO (CHO) cells
T1 sequence (Q8N539 1-461): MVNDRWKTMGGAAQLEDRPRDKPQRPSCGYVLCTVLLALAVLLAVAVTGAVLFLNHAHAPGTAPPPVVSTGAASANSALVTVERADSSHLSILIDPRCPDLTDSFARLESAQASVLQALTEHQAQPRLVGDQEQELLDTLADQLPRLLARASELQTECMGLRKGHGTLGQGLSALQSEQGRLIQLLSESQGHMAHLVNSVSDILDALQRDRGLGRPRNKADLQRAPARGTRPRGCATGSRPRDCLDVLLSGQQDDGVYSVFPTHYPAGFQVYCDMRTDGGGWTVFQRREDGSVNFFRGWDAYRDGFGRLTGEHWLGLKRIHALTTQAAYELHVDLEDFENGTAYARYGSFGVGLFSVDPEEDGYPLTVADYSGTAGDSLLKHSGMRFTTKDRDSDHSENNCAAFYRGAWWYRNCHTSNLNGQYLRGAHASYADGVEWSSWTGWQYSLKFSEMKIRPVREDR
Nature of the data set: Fluorescence polarization (FP) assay. It counts as binding. The note with it: RB conjugates 50 nM, 1% BSA/PBST, room temperature 30 min, Hill fit; recombinant full-length FIBCD1 from CHO cells. As to the method:
experiment. Poly-A selective RNA-seq libraries were prepared using the NEB NextUltra II kit (New England Biolabs) and sequenced on an Illumina NextSeq500 with 2×75 pair-end reads. The obtained sequencing data was preprocessed using fastp, aligned using STAR, and counted using featureCounts. Differentially expressed genes were identified using DESeq2. The sequence data and analysis reports are deposited in the GEO repository (Accession # GSE202764) […]
U87 cells were incubated with 500 nM RB-EPP6 and YOYO, together with chondroitin sulfate (CSA) in complete media. After 1 h, trypsin was used to detach the cells. Cell pellets were collected by centrifugation. Fresh phenol-free medium was added to each condition. […]
Human FIBCD1 cDNA with an MYC-DDK tag was ordered from Origene (#RC206180) and was expressed using the mammalian expression system kit ExpiCHOTM (#A29133) as generally described by MAN0014337. […] The obtained full-length FIBCD1 was quantified using BCA.
Fluorescence polarization (FP) assay
Solutions of RB-EPPs (in 1% BSA/PBST) were added to different concentrations of full-length FIBCD1 (in 1% BSA/PBST). […] The solutions were incubated at room temperature for 30 minutes on an orbital shaker, and the fluorescence polarization values were quantified using a BioTek Synergy H1 plate reader, with an FP filter set (excitation 530/25, emission 590/35). […]

In data set [3] the test system is MDCK cell monolayers. The class given is in vitro ADME, canine. The method, then: FIBCD1 Lentiviral target, at different multiplicities of infection (MOI) levels. The cells were then incubated at 37 °C and 5% CO2. After 48 hours, the media was removed and replaced with fresh new media. Cell selection was carried out using G418 (Alfa Aesar) at 1 mg/mL for 7 days, and the surviving cells were collected and analyzed for FIBCD-KO efficiency by western blot. The best candidate was used for the RB-EPP6 uptake experiments described above.
200k MDCK cells were seeded in 200 μL of complete media in the apical side transwell insert (12-well 8 μm pore size Transwell-65 mm). In addition, 1 mL of complete growth media is added to the basolateral chamber. Six transwell inserts were prepared for a TAT peptide labeled with RB (RB-[…]), and six other inserts were prepared for RB-EPP6. The plate was incubated for 2-3 days at 37 °C with 5% CO2. The electrical resistance of the MDCK transwell inserts was measured using the EVOM Epithelial Voltohmmeter to monitor the integrity of tight junctions for the following two days. On day 3, serum-free media was used to wash both the apical (200 μL) and basolateral (1 mL) wells three times. […]
The assay was carried out in apical to basolateral directions. […] After that, 80 μL of the samples were collected from each chamber for RB fluorescence intensity reading using a Synergy […]

Data set [4] has as its system zebrafish larvae. Put plainly: Biodistribution in zebrafish larvae, fluorescence microscopy. The class given is in vivo. The note with it: larvae 6 dpf, 1 h incubation; compared with free rhodamine dye and RB-GSQTH control.
Data set [5] concerns Caco2. Nature of the data set: RB-EPP6 uptake in Caco2 cells. The following applies: RB conjugate. It counts as cell-based.

In the case of `CCN(CC)c1ccc2c(-c3ccccc3C(=O)N(C)CCCC(=O)N[C@H]3Cc4cn(nn4)CCCC[C@@H](C(N)=O)NC(=O)[C@H](CO)NC(=O)[C@H](Cc4ccc(O)cc4)NC(=O)[C@H](Cc4ccc(O)cc4)NC(=O)[C@H](CO)NC(=O)[C@H](Cc4ccc(O)cc4)NC3=O)c3ccc(=[N+](CC)CC)cc-3oc2c1` [RB-EPP6, RB-cy(YSYYS)] (RhodamineB-[NMeGABA][Pra]YSYYS[Lys(N3)]-NH2; triazole 2-8), in data set [1], the “effect on cell viability” value is “without affecting cell viability”. In data set [2], the Kd is roughly 200 nM. Further, in data set [3], the Papp is on record as 5.25 × 10^–6 and the “Papp compared with RB-TAT47–57” value was “more than twice”. Also, the “tissue accumulation in zebrafish larvae” value in data set [4] is “preferentially accumulated in the olfactory pit and neuromasts”. Moreover, in data set [5], the “uptake in Caco2 cells” value is recorded as “did not exhibit EPP6 uptake”.
